# According to PubChem BioAssay (NCI):
#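 Following 48 hours of exposure in 96-well plates, responses at five concentrations were used to interpolate endpoints linearly. TGI: concentration producing complete growth inhibition.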
# Assays:
# Test in all cases: NCI anticancer screen, dose series, 48 h
# MALME-3M melanoma = tested on: MALME-3M melanoma
# UACC-62 melanoma = tested on: UACC-62 melanoma
# NCI-H23 lung = tested on: NCI-H23 lung
# UACC-257 melanoma = tested on: UACC-257 melanoma
# OVCAR-5 ovarian = tested on: OVCAR-5 ovarian
# ACHN renal = tested on: ACHN renal
# LOX IMVI melanoma = tested on: LOX IMVI melanoma
# OVCAR-4 ovarian = tested on: OVCAR-4 ovarian
# T-47D breast = tested on: T-47D breast
# SK-MEL-5 melanoma = tested on: SK-MEL-5 melanoma
# MOLT-4 leukemia = tested on: MOLT-4 leukemia
# SK-MEL-2 melanoma = tested on: SK-MEL-2 melanoma
# PC-3 prostate = tested on: PC-3 prostate
# SNB-19 CNS = tested on: SNB-19 CNS
# CCRF-CEM leukemia = tested on: CCRF-CEM leukemia
# SF-295 CNS = tested on: SF-295 CNS
# EKVX NSCLC = tested on: EKVX NSCLC
# SF-268 CNS = tested on: SF-268 CNS
# IGROV1 ovarian = tested on: IGROV1 ovarian
# SR leukemia = tested on: SR leukemia
Structure (SMILES),TGI (MALME-3M melanoma) [µM],TGI (UACC-62 melanoma) [µM],TGI (NCI-H23 lung) [µM],TGI (UACC-257 melanoma) [µM],TGI (OVCAR-5 ovarian) [µM],TGI (ACHN renal) [µM],TGI (LOX IMVI melanoma) [µM],TGI (OVCAR-4 ovarian) [µM],TGI (T-47D breast) [µM],TGI (SK-MEL-5 melanoma) [µM],TGI (MOLT-4 leukemia) [µM],TGI (SK-MEL-2 melanoma) [µM],TGI (PC-3 prostate) [µM],TGI (SNB-19 CNS) [µM],TGI (CCRF-CEM leukemia) [µM],TGI (SF-295 CNS) [µM],TGI (EKVX NSCLC) [µM],TGI (SF-268 CNS) [µM],TGI (IGROV1 ovarian) [µM],TGI (SR leukemia) [µM]
COC(=O)c1ccccc1C1CN=NC12Cc1ccc(C)c(C)c1C2=O (stereo not drawn),> 100,> 100,> 100,> 100,> 100,> 100,> 100,> 100,> 100,> 100,> 100,> 100,> 100,> 100,> 100,> 100,> 100,> 100,> 100,–
O=C1C(N2CCNCC2)=C(Cl)C(=O)c2ncccc21,> 10,> 10,> 10,> 10,> 10,> 10,–,> 10,> 10,> 10,> 10,> 10,> 10,> 10,> 10,> 10,> 10,> 10,> 10,> 10
CC(=O)OCC1OC(n2c(-c3ccccc3)c(C(C)=O)c(-c3ccc(Cl)cc3)c(C#N)c2=S)C(OC(C)=O)C(OC(C)=O)C1OC(C)=O (stereo not drawn),> 100,> 100,> 100,> 100,> 100,> 100,> 100,> 100,> 100,> 100,> 100,–,8.46,> 100,> 100,> 100,> 100,> 100,> 100,> 100
O=C(CC(C(=O)c1ccco1)c1ccsc1)c1ccco1 (stereo not drawn),–,> 100,> 100,> 100,> 100,> 100,> 100,> 100,> 100,> 100,> 100,–,–,–,> 100,> 100,> 100,> 100,> 100,> 100
CC(OC(C)(C)C)[C@H](NC(=O)OC(C)(C)C)C(=O)O (stereo partly drawn),> 100,> 100,> 100,> 100,> 100,> 100,> 100,> 100,> 100,> 100,> 100,–,> 100,> 100,> 100,> 100,> 100,> 100,> 100,> 100
Cc1nc(Nc2ccccc2Cl)sc1C(=O)CC(=O)C(=O)Nc1c(Cl)cccc1Cl,–,> 100,> 100,> 100,> 100,> 100,85.8,> 100,71.6,> 100,67.9,56.2,> 100,> 100,> 100,> 100,71.1,> 100,63.5,68.6
Oc1cc(Br)cc2cccnc12,47,7.81,31.2,6.93,> 100,> 69,–,> 65.3,25.4,15.1,9.84,> 100,> 100,> 100,4.61,32.7,16.2,> 42.2,8.22,5.92
COc1ccc(-c2c(=O)[nH]n3c(=S)nc(-c4ccccc4)[nH]c23)cc1OC,40.7,39.8,58.3,61.1,47.3,51.1,37,61.1,42.6,30.1,33.4,–,90.7,28.5,31.1,51.4,60.8,> 100,56.7,24.2
Nc1nc(N)c(C2=CCNCC2)c(=O)[nH]1,> 100,> 100,> 100,> 100,> 100,> 100,–,> 100,> 100,> 100,> 100,> 100,> 100,> 100,> 100,> 100,> 100,> 100,> 100,> 100
Nc1nc(N)c(NC(=O)CCCO)c(=O)[nH]1,> 100,> 100,> 100,> 100,> 100,> 100,> 100,> 100,> 100,> 100,> 100,> 100,> 100,> 100,> 100,> 100,> 100,> 100,> 100,–
Oc1ccccc1/C=N/Nc1nc(N/N=C/c2ccccc2O)nc(N/N=C/c2ccccc2O)n1,> 100,> 100,> 100,> 100,> 100,> 100,> 100,> 100,> 100,> 100,> 100,> 100,> 100,> 100,–,> 100,> 100,> 100,> 100,> 100
CC1(C)O[C@@H]2[C@@H](COC(=O)c3ccccc3)C[C@@H](C#N)[C@@H]2O1,> 100,> 100,> 100,–,> 100,> 100,> 100,> 100,> 100,> 100,> 100,–,> 100,> 100,> 100,> 100,–,> 100,> 100,> 100
